In patent US20090104157A1, “UTILIZATION OF BACTERIOPHAGE TO CONTROL BACTERIAL CONTAMINATION IN FERMENTATION PROCESSES” (E. I. du Pont de Nemours and Company, priority 2007, published 2009):

Legend:
L. plantarum ATCC 8014 = assay: Growth of L. plantarum in MRS broth by optical density (Example 1); type: cell-based, Lactobacillus plantarum; conditions: 1 ppm, after 40 hours of incubation
Excerpt: Lactobacillus plantarum is a bacterium commonly isolated from contaminated fuel ethanol fermentation. In this example, a spectrophotometer was used to quantify the growth of L. plantarum in laboratory media. The use of a spectrophotometer allowed rapid determination of bacterial levels by optical density. The optical density indicates the amount of light (at a wavelength of 450 nm) absorbed by a sample. High levels of bacterial growth in a sample well result in higher optical density.
L. plantarum ATCC 8014 was cultured overnight in MRS broth (available from Difco, Sparks, Md.) at 30° C. Stocks of L. plantarum ATCC 8014 bacteriophage (bacteriophage cocktail is referred to in the Examples as “B-8014”) were prepared and titered using the overlay method (Adams, M. H. The Bacteriophages, Interscience Publishers, New York, 1959) with MRS agar. Since bacteriophage (phage) are viruses, they are unable to replicate outside of their bacterial host. Therefore, to enumerate phage, cultures of host bacteria were prepared and mixed with dilutions of phage. These mixtures were placed onto a petri dish containing agar and incubated overnight. The presence of clear zones on “lawns” of bacteria indicated phage infection. These clear zones are known as “plaques” and therefore, phage levels are commonly referred to as plaque forming units per milliliter (PFU/ml). […]

[1] = test system: Lactobacillus plantarum ATCC 8014 in corn mash; assay: Level of L. plantarum in inoculated corn mash by plating on MRS agar (Example 2); type: cell-based; conditions: 3 ppm
Description: Samples of corn mash were collected from a commercial fuel ethanol plant. The corn mash was collected immediately after liquefaction, prior to entry into fermentation. Corn mash samples were frozen upon arrival and defrosted for use in experiments. Lactobacillus plantarum ATCC 8014 was cultured overnight in MRS broth (Difco, Sparks, Md.). Samples of corn mash were inoculated with L. plantarum at approximately 10^4 CFU/ml. This level of bacterial contamination is common in fuel ethanol plants. L. plantarum bacteriophage (B-8014) were prepared and titered using the overlay method on MRS agar (as described in Example 1). One sample of corn mash received no treatment. A second sample was treated by the addition of 3 parts per million (ppm) of Penicillin G. Three additional samples were treated with phage at a bacteria to phage ratio of 1:1, 1:10, and 1:100. All mash samples were incubated at 33° C., the temperature at which commercial fermentation takes place. The level of bacteria remaining in the test samples was determined by decimal dilutions in phosphate-buffered saline followed by plating of these dilutions onto plates of MRS agar. Plates were incubated overnight at 33° C. and colonies were enumerated.

CC1(C)S[C@@H]2[C@H](NC(=O)Cc3ccccc3)C(=O)N2[C@H]1C(=O)O [Penicillin G]
optical density at 450 nm compared with control wells (L. plantarum ATCC 8014): higher | reduction of growth of L. plantarum (L. plantarum ATCC 8014): not effective | effect on growth of L. plantarum [1]: did not affect or control growth | Log CFU/ml at 0 hours ([1]; 33° C.): 4.86 Log CFU/ml | Log CFU/ml at 24 hours ([1]; 33° C.): 9.09 Log CFU/ml | Log CFU/ml at 40 hours ([1]; 33° C.): 9.19 Log CFU/ml
